Patent US20250282736A1, “SMALL MOLECULE MODULATORS OF HUMAN PREGNANE X RECEPTOR” (ST. JUDE CHILDREN'S RESEARCH HOSPITAL, priority 2022, published 2025)

What was measured:
hPXR [1] = target: T1, hPXR (Homo sapiens (Human), UniProt O75469); assay: hPXR binding assay; conditions: for inhibition at 10 µM: read-out: Binding (% inhibition at 10 μM)
hPXR [2] = target: T1, hPXR; assay: cell-based hPXR antagonistic assay; conditions: for Antagonist (% inhibition at 10 μM): SPA70 at 10 μM with rifampicin (5 μM) as 100% inhibition, rifampicin alone (5 μM) as 0%; for inhibition at 10 µM: read-out: Antagonist (% inhibition at 10 μM)
hPXR [3] = target: T1, hPXR; assay: cell-based hPXR agonistic assay; conditions: for Agonist (% activation at 10 μM): rifampicin at 10 μM as 100% activation, DMSO (0.3%) as 0%
hPXR [4] = target: T1, hPXR; assay: cell-based hPXR inverse agonistic assay; conditions: for inhibition at 10 µM: read-out: Inverse agonist (% inhibition at 10 μM)
[5] = read-out: Binding (IC50/μM), hPXR binding assay
[6] = read-out: Antagonist (IC50/μM), cell-based hPXR antagonistic assay with rifampicin (5 μM)
[7] = read-out: Inverse agonist (IC50/μM), cell-based hPXR inverse agonistic assay

T1 sequence (O75469 whole entry): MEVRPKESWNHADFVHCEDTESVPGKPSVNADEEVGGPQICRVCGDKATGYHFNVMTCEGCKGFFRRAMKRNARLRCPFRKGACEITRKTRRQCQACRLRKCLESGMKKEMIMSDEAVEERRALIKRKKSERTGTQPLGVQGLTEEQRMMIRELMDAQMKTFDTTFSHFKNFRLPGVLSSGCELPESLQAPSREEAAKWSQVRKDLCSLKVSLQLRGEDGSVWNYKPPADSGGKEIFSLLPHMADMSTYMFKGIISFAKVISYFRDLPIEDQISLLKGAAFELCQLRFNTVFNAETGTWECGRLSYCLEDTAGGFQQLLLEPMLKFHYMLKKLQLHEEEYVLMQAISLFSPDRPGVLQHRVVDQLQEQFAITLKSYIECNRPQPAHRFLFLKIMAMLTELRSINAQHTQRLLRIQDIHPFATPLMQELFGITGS

SMILES | IC50 (hPXR [1]; [5]) [µM] | Antagonist (% inhibition at 10 μM) (hPXR [2]) | IC50 (hPXR [2]; [6]) [µM] | EC50 (hPXR [3]) [µM] | IC50 (hPXR [4]; [7]) [µM] | IC50 (hPXR [1]) [µM] | IC50 (hPXR [2]) [µM] | IC50 (hPXR [4]) [µM] | inhibition at 10 µM (hPXR [1]) [%] | Agonist (% activation at 10 μM) (hPXR [3]) | inhibition at 10 µM (hPXR [2]) [%] | inhibition at 10 µM (hPXR [4]) [%]
COc1ccc(OC)c(-n2nnc(C(=O)Nc3cc(N(C)C)cc(C(C)(C)C)c3)c2C)c1 [D3, N-(3-(tert-butyl)-5-(dimethylamino)phenyl)-1-(2,5-dimethoxyphenyl)-5-methyl-1H-1,2,3-triazole-4-carboxamide] | 0.27 ± 0.04 | (110 ± 3)% | 0.34 | > 30 | 0.11 |  |  |  |  |  |  | 
COc1ccc(OC)c(-n2nnc(C(=O)Nc3ccc(CN4CCN(C)CC4)cc3)c2C)c1 [A17] |  |  |  | > 30 |  | > 30 | > 30 | > 30 |  |  |  | 
COc1ccc(OC)c(-n2nnc(C(=O)Nc3ccc(NC(C)=O)c(C(C)(C)C)c3)c2C)c1 [C1, N-(4-acetamido-3-(tert-butyl)phenyl)-1-(2,5-dimethoxyphenyl)-5-methyl-1H-1,2,3-triazole-4-carboxamide] | 1.81 ± 0.52 |  |  | 1.96 ± 0.19 |  |  | > 30 | > 30 | 65 | (50 ± 14)% |  | 
COc1ccc(OC)c(-n2nnc(C(=O)Nc3cc(C(C)(C)C)ccc3OCCCCCCCCOc3ccc(C(C)(C)C)cc3NC(=O)c3nnn(-c4cc(OC)ccc4OC)c3C)c2C)c1 [B20] |  |  |  | > 30 |  | > 30 | > 30 | > 30 |  |  |  | 
COc1ccc(OC)c(-n2nnc(C(=O)Nc3cc(C(C)(C)C)ccc3OCC(C)C)c2C)c1 [B32] | 0.018 |  |  | > 30 |  |  | 0.26 |  | 81 |  | 96 | 89
COc1ccc(C)cc1-n1nnc(C(=O)Nc2ccc(O)c(C(C)(C)C)c2)c1C [G2, N-(3-(tert-butyl)-4-hydroxyphenyl)-1-(2-methoxy-5-methylphenyl)-5-methyl-1H-1,2,3-triazole-4-carboxamide] | 1.93 ± 0.3 |  |  | > 30 |  |  | 0.93 ± 0.11 | 0.48 | 75 |  | 108 | 115
CCCCN(CCCC)c1cc(NC(=O)c2nnn(-c3cc(OC)ccc3OC)c2C)cc(C(C)(C)C)c1 [D5, N-(3-(tert-butyl)-5-(dibutylamino)phenyl)-1-(2,5-dimethoxyphenyl)-5-methyl-1H-1,2,3-triazole-4-carboxamide] | 0.5 ± 0.12 | (82 ± 17)% | 0.62 ± 0.28 | > 30 | 0.15 |  |  |  |  |  |  | 
CCC(C)Oc1ccc(C(C)(C)C)cc1NC(=O)c1nnn(-c2ccccc2OC)c1C (centres unmarked) [I3] | 0.0085 ± 0.0011 |  |  | 0.066 ± 0.013 |  |  | 0.061 ± 0.011 | > 30 | 88 | (25 ± 3)% | 66 | 
COc1ccc(OC)c(-n2nnc(C(=O)Nc3cccc(N(C)C)c3)c2C)c1 [A10] | 10.5 ± 2.1 |  |  | > 30 |  |  | > 30 | > 30 | 49 |  |  | 
COc1ccc(OC)c(-n2nnc(C(=O)Nc3cccc(N4CCCCC4)c3)c2C)c1 [A12] | 9.37 ± 3.52 |  |  | > 30 | 25.8 ± 6.27 |  | > 30 |  | 50 |  |  | 36
CCCCOc1ccc(C(C)(C)C)cc1NC(=O)c1nnn(-c2cc(OC)ccc2C)c1C [H11] | 0.12 |  |  | 1.68 ± 0.34 |  |  | > 30 | > 30 | 10 | (16 ± 6)% |  | 
COc1ccc(C)cc1-n1nnc(C(=O)Nc2cc(C(C)(C)C)cc(C(C)(C)C)c2)c1C [G4] | 0.1 |  |  | > 30 |  |  | 0.2 | 0.074 ± 0.013 | 74 |  | 104 | 101
CCCCOc1ccc(C(C)(C)C)cc1NC(=O)c1nnn(-c2cc(OC)ccc2Br)c1C [H10] | 1.31 |  |  | > 30 |  |  | > 30 | > 30 | 28 |  |  | 
COc1ccc(OC)c(-n2nnc(C(=O)Nc3cc(OCC(=O)O)cc(C(C)(C)C)c3)c2C)c1 [D32] |  |  |  | > 30 |  | > 30 | > 30 | > 30 |  |  |  | 
